Where “and” joins values, the source holds several entries; their conditions need not be identical. Equal entries are not always repeated. Entries after “also recorded” stand apart in the source; their conditions may differ. Where two headings read alike, the source gives them in different places.
What was measured:
[1] = tested on: HT-1080; conditions: literature values (Banskota, Kimoto); unit not given; cited from earlier work
[2] = tested on: Colon L5-26; conditions: literature values (Banskota, Kimoto); unit not given; cited from earlier work
[3] = tested on: MCF7 (Normal mamma tumor); test: Antiproliferate test in tumoral human cells, sulforrodamina B essay; format: cell-based
Protocol: (§1) Methodology utilized to perform the antitumoral tests:
(§2) Report of the Antiproliferate Test in Tumoral Human Cells with the Sulforrodamina B Essay
(§3) The cell lines used in the essays, described in the table 1, were maintained in recipients of 25 cm^2 (Nunc®), with 5 mL of culture medium RPMI 1640 supplemented with 5% bovine foetal serum (RPMI/SFB), at 37° C. in atmosphere of 5% of CO2 and 100% of humidity.
(§4) […] of cells in medium RPMI/SFB with 50 μg/mL of Gentamicin were inoculated in its respectives densities of inoculation, in plates of 96 compartments and incubated for 24 hours at 37° C. in atmosphere of 5% of CO2 and 100% of humidity.
(§5) After 24 hours, […] of the test substance were added in the following concentrations of 250; 25; 2.5; 0.2 μg/mL diluted in RPMI/SFB/gentamicin. In this moment the reading of one plate was performed for the determination of the T0 (cell control in the moment of the adding the samples). The other plates were incubated for 48 hours After this period the experiment was paused by adding the trichlorine acetic acid to further determine the protein content by means of […] essay with the sulforrodamina B.
(§6) The stocked solutions were developed by diluting the samples in dimethyl sulfoxide (DMSO) in the concentration of 0.1 g/mL. That solution was diluted by 400 times in RPMI/SFB/gentamicina to be added in the plates of 96 compartments being obtained so the a ideal concentration of DMSO (Skehan e cols. 1990).
(§7) At the end of the test, the plates of 96 compartments were centrifuged for 3 minutes at 2000 rpm, and they were fixed with 50 μL of a solution at 50% of trichloroacetic acid (TCA) at 4° C. To complete the cellular fixation, the plates were incubated for 1 hour at 4° C.
(§8) The plates were submitted to four consecutive washes with distillated water to remore the residues of TCA, medium, SFB and secondary metabolic and maintained at room temperature until the complete drying.
(§9) A coloration was performed by the adding of 50 μL SRB at 0.4% (weight/volume) diluted in acetic acid at 1%, and maintained at 4° C. for 30 minutes. Further, they were washed by 4 consecutive times with a solution of acetic acid 1%. The residue of the washing of the solution was removed and the plates were dried again at room temperature. The colorant linked to the cellular protein was diluted with a solution of Trizma Base (Sigma®) in concentration of […] and pH 10.5 for 5 minutes in ultrasonic bath. The spectrophotometric of absorbancy reading was performed in 560 nm in a micro plates lector (Labsystems Labsystems Multiskan® MCC/340).
(§10) The absorbancy averages were assessed having discounted its respective nulls and by means of the formula shown below was determined the growth inhibition (IC) of each tested sample.
(§11) If T≧T0 but <C, the drug was cytostatic and the formula used is 100×[(T−To)/(C−T0)]
(§12) If T<T0 the drug was cytotoxic and the formula used is […]
(§13) Considering that T is the absorbency average of the treated cell C is the cell control and T0 is the cell control in the addition day.
(§14) The obtained result was subtracted from 100% so obtaining the percentage of growth inhibition. The samples were considered actives since they presented growth inhibition dependant dose higher than 50% and selective lineage, that is, the preferential activity for only one type of tumoral cell or with cytostatic and/or killer cell effect well distinguished among the cell lines.
(§15) All the assays were performed in triplicates so that the presented results make reference to a representative experiment. The standard deflection from the average was always lower than 5%.

[4] = tested on: NCI460 (Lung tumor); test: as above; format: cell-based
Protocol: as §1, §2, §3, §4, §5, §6, §7, §8, §9, §10, §11, §12, §13, §14, §15

[5] = tested on: NCIADR (Mamma tumor which expresses the phenotype resistance against multiple drugs); test: as above; format: cell-based; conditions: for growth inhibition of the Mama NCI-ADR cell line, in words: resistance against multiple drugs
Protocol: as §1, §2, §3, §4, §5, §6, §7, §8, §9, §10, §11, §12, §13, §14, §15

[6] = tested on: UACC62 (Melanoma); test: as above; format: cell-based
Protocol: as §1, §2, §3, §4, §5, §6, §7, §8, §9, §10, §11, §12, §13, §14, §15

[7] = tested on: all cell lines (nine different types of human cancer); test: Antiproliferate test, sulforrodamina B essay, whole panel of cell lines; format: cell-based; conditions: for cytostatic / antiproliferate activity (growth inhibition), in words / concentration from which cytostatic activity (growth inhibition) is presented: all cell lines; for concentration from which cytotoxic / killer cell activity (cellular death) is presented: all cell lines of the panel; for selectivity for the studied cell lines, in words: panel of cell lines
Protocol: as §1, §2, §3, §4, §5, §6, §7, §8, §9, §10, §11, §12, §13, §14, §15

[8] = Acute toxicity test (LD50, body weight, deaths); format: in vivo, albinic swiss mouses; conditions: for Initial Weight, Average ± dpm / Initial Weight, single animal: beginning of the test; for Final Weight, Average ± dpm / Final Weight, single animal: ending of the test
Protocol: Also a toxicological test with the sample denominated 37 compound (Acute Toxicity, LD50, via intraperitoneal).
Methodology utilized to perform the toxicological tests:
10 albinic swiss mouses are used, of the male gender, weighting approximately 25 g, for each of the treated groups and control;
Adaptation period: the animals are maintained in the tests room at least for 07 days before the beginning of the essay;
The animals are submitted to fast 12 hours before administering the test substance, done by gavage, at the time the animal's body weight is listed.
After the administration the animals are maintained in observation for a minimum period of 14 days.
The number of death animals for each one of the doses is listed and the LD50 is assessed by Litchfield and Wilcoxon's (1949) method and the animal's body weight is listed at the end of the acute toxicity test.

[9] = cited from earlier work
[10] = tested on: 786-0 (Renal tumor); test: Antiproliferate test in tumoral human cells, sulforrodamina B essay; format: cell-based
Protocol: as §1, §2, §3, §4, §5, §6, §7, §8, §9, §10, §11, §12, §13, §14, §15

[11] = tested on: K-562 (Leukemia); test: as above; format: cell-based; conditions: K562
Protocol: as §1, §2, §3, §4, §5, §6, §7, §8, §9, §10, §11, §12, §13, §14, §15

[12] = tested on: HT29 (Colon tumor); test: as above; format: cell-based; conditions: HT-29
Protocol: as §1, §2, §3, §4
After 24 hours, […] of the test substance were added in the following concentrations of 250; 25; 2.5; 0.2 μg/mL diluted in RPMI/SFB/gentamicin. In this moment the reading of one plate was performed for the determination of the T0 (cell control in the moment of the adding the samples). […]
A coloration was performed by the adding of 50 μL SRB at 0.4% (weight/volume) diluted in acetic acid at 1%, and maintained at 4° C. for 30 minutes. […] The spectrophotometric of absorbancy reading was performed in 560 nm in a micro plates lector (Labsystems Labsystems Multiskan® MCC/340).
The absorbancy averages were assessed having discounted its respective nulls and by means of the formula shown below was determined the growth inhibition (IC) of each tested sample. […]

[13] = tested on: OVCAR-3 (Ovary tumor); test: as above; format: cell-based
Protocol: as §1, §2, §3, §4, §5, §6, §7, §8, §9, §10, §11, §12, §13, §14, §15

[14] = tested on: PC-3 (Prostate tumor); test: as above; format: cell-based; conditions: PC-03
Protocol: as §1, §2, §3, §4, §5, §6, §7, §8, §9, §10, §11, §12, §13, §14, §15

CC(C)=CCc1cc(C=CC(=O)O)cc2c1OC(C)(C)C(O)C2 (stereo not shown) [Compound 1, 3-hydroxy-2,2-dimethyl-8-prenylchromane-6-propenoic acid]
Cytotoxicity HT-1080 [1]: 71.53
Cytotoxicity Colon L5-26 [2]: 77.07

CC(C)=CCc1cc(C=CC(=O)O)cc2c1OC(C)(C)C=C2 [Compound 2, 2,2-dimethyl-8-prenyl-2H-1-benzopyranbenzopyrene-6-yl-2-propenoic acid]
Cytotoxicity HT-1080 [1]: 46.86
Cytotoxicity Colon L5-26 [2]: 50.22

CC(C)=CCc1cc(C=CC(=O)O)cc(CC=C(C)C)c1O [Compound 3, 3,5-diprenyl-4-hydroxycinnamic acid]
Cytotoxicity HT-1080 [1]: 45.47
Cytotoxicity Colon L5-26 [2]: 59.32

CC(C)=CCc1cc(C=CC(=O)O)ccc1OC(=O)CCc1ccccc1 [Compound 4, 4-dihydrocinnamoyloxy-3-prenylcinnamic acid]
Cytotoxicity HT-1080 [1]: 25.94
Cytotoxicity Colon L5-26 [2]: 77.90

COc1cc(C=CC(=O)C=Cc2ccc(O)c(OC)c2)ccc1O [Compound 37, 1,5-bis(4-hydroxy-3-methoxyphenyl)-penta-1,4-dien-3-one]
concentration with cytotoxic activity (cellular death) [3]: ≥ 0.25 µg/mL
concentration with cytotoxic activity (cellular death) [4]: ≥ 0.25 µg/mL
concentration with cytotoxic activity (cellular death) [5]: ≥ 0.25 µg/mL
growth inhibition of the Mama NCI-ADR cell line, in words ([5]; listed as 37/01): strong cytostatic activity
growth inhibition of the Mama NCI-ADR cell line, in words ([5]; listed as our product): inhibited the growth
concentration with cytotoxic activity (cellular death) [6]: ≥ 0.25 µg/mL
cytostatic / antiproliferate activity (growth inhibition), in words [7]: cytostatic activity (growth inhibition) for all cell lines
concentration from which cytotoxic / killer cell activity (cellular death) is presented [7]: ≥ 0.25 µg/mL
cytostatic / antiproliferate activity (growth inhibition), in words ([7]; listed as 37/01): cytostatic activity (growth inhibition) in the concentrations evaluated
Deaths (n), single animal ([8]; 2.5 g/Kg via intraperitoneal): 0
Initial Weight, Average ± dpm ([8]; 2.5 g/Kg via intraperitoneal): 24.60 ± 2.51 g
Initial Weight, single animal ([8]; 2.5 g/Kg via intraperitoneal): 24.5 g and 25.4 g (2×) and 24.1 g and 26.6 g and 24.8 g and 22.5 g and 29.7 g and 22.4 g and 20.6 g
Final Weight, Average ± dpm ([8]; 2.5 g/Kg via intraperitoneal): 27.88 g
Final Weight, single animal ([8]; 2.5 g/Kg via intraperitoneal): 26.4 g and 28.0 g and 28.6 g and 27.4 g and 29.0 g and 27.8 g and 25.0 g and 31.2 g and 25.4 g and 22.8 g
Deaths (n), single animal ([8]; 3.0 g/Kg via intraperitoneal): 0 (9×) and 1
Initial Weight, Average ± dpm ([8]; 3.0 g/Kg via intraperitoneal): 25.47 ± 2.43 g
Initial Weight, single animal ([8]; 3.0 g/Kg via intraperitoneal): 28.3 g and 30.9 g and 24.6 g and 25.4 g and 25.1 g and 23.2 g and 23.6 g (2×) and 26.0 g and 24.0 g
Final Weight, Average ± dpm ([8]; 3.0 g/Kg via intraperitoneal): 27.81 g
Final Weight, single animal ([8]; 3.0 g/Kg via intraperitoneal): 30.3 g and 32.5 g and 25.9 g and 28.0 g and 27.9 g and 25.6 g and 26.0 g and 25.8 g and 28.3 g and Death
Deaths (n), single animal ([8]; 4.0 g/Kg via intraperitoneal): 0 (9×) and 1
Initial Weight, Average ± dpm ([8]; 4.0 g/Kg via intraperitoneal): 26.41 ± 3.52 g
Initial Weight, single animal ([8]; 4.0 g/Kg via intraperitoneal): 29.8 g and 25.5 g and 33.2 g and 25.9 g and 26.3 g and 28.9 g and 26.7 g and 23.3 g (2×) and 21.2 g
Final Weight, Average ± dpm ([8]; 4.0 g/Kg via intraperitoneal): 28.98 g
Final Weight, single animal ([8]; 4.0 g/Kg via intraperitoneal): 32.5 g and 26.9 g and 35.9 g and 28.9 g and 29.0 g and 30.2 g and 28.0 g and 25.9 g and 23.5 g and Death
Deaths (n), single animal ([8]; 5.0 g/Kg via intraperitoneal): 0 (8×) and 1 (2×)
Initial Weight, Average ± dpm ([8]; 5.0 g/Kg via intraperitoneal): 23.68 ± 1.42 g
Initial Weight, single animal ([8]; 5.0 g/Kg via intraperitoneal): 24.9 g and 21.0 g and 25.4 g and 22.2 g and 24.0 g and 23.8 g and 22.5 g and 23.5 g and 24.2 g and 25.3 g
Final Weight, Average ± dpm ([8]; 5.0 g/Kg via intraperitoneal): 25.86 g
Final Weight, single animal ([8]; 5.0 g/Kg via intraperitoneal): 25.9 g (2×) and 24.0 g and 27.8 g and 25.6 g and 27.0 g and 25.8 g and 24.9 g and Death (2×)
toxicity classification according to Loomis, in words ([8]; from LD50 (5.0-15 g/Kg = practically nontoxic)): practically nontoxic
LD50 at 14 days ([8]; male, Swiss albino, mouse, in vivo, ip, acute toxicity, via intraperitoneal, linear regression, 14 days of observation): 8540 mg/kg

COc1cccc2c1C(=O)c1c(O)c3c(c(O)c1C2=O)C[C@@](O)(C(=O)CO)C[C@@H]3O[C@H]1C[C@H](N)[C@H](O)[C@H](C)O1 [Doxorubicin, reference compound]
growth inhibition of the Mama NCI-ADR cell line, in words [5]: does not inhibit the growth; also recorded: did not inhibit the growth
toxicity, in words ([9]; in vivo): extremely toxic
LD50 ([9]; species and route not given): 20 mg/kg

COc1cc(C=CC(=O)C=Cc2ccc(OC(C)=O)c(OC)c2)ccc1OC(C)=O [EHB1, 1,5-bis(3-metoxy-4-acetoxyphenyl)-penta-1,4-dien-3-one]
growth inhibition ([5]; NCI-ADR cell line, concentration not clearly stated (from 25 μg/mL)): around 25%
concentration from which cytostatic activity (growth inhibition) is presented [7]: ≥ 0.25 µg/mL
concentration from which cytotoxic / killer cell activity (cellular death) is presented [7]: ≥ 25 µg/mL
selectivity for the studied cell lines, in words [7]: not selective

COc1cc(C=CC(=O)C=Cc2ccc(OCC=C(C)C)c(OC)c2)ccc1OCC=C(C)C [HB6, 1,5-Bis[3-metoxy-4-(3-methyl-but-2-eniloxy)phenyl]-penta-1,4-dien-3-one]
concentration with cytotoxic activity (cellular death) [10]: 250 µg/mL
concentration with cytotoxic activity (cellular death) [11]: 250 µg/mL
concentration with cytotoxic activity (cellular death) ([5]; NCIADR): 250 µg/mL
concentration with cytotoxic activity (cellular death) [12]: 250 µg/mL
concentration from which cytostatic activity (growth inhibition) is presented [7]: ≥ 25 µg/mL
selectivity for the studied cell lines, in words [7]: cellular selectivity for HT-29 and 786-0 cell lines

COc1ccc(C=CC(=O)C=Cc2ccc(OC)c(OC)c2)cc1OC [HBM1, 1,5-Bis(3,4-dimetoxyphenyl)-penta-1,4-dien-3-one]
concentration with cytotoxic activity (cellular death) [13]: 250 µg/mL
concentration with cytotoxic activity (cellular death) [14]: 250 µg/mL
concentration from which cytostatic activity (growth inhibition) is presented [7]: ≥ 0.25 µg/mL
